Results on ten compounds are retold here after patent US10138261B2, “Ferrocenyl compounds” (The University of Birmingham, priority 2013, dated 2018).

For series [1], the system named is murine leukemia cells (L1210). The experiment in a line: proliferation activity assay, L1210 cells. The conditions noted are these: read-out: IC50 (50% inhibitory concentration) L1210. Type of series: cell-based.
Series [2] has as its system non-cancerous human T-lymphocyte cells (CEM). Description: proliferation activity assay, CEM cells. Type of series: cell-based. The conditions noted are these: read-out: IC50 (50% inhibitory concentration) CEM.
Series [3] relates to human cervix carcinoma cells (Hela). Description: proliferation activity assay, HeLa cells. The conditions noted are these: read-out: IC50 (50% inhibitory concentration) HeLa. Type of series: cell-based.
The subject of series [4] is oesophageal cancer cell lines OE 19 and OE 33.
The subject of the next series is Vaccinia virus. The experiment in a line: microbe, parasite or virus in culture. Type of series: cell-based. The conditions noted are these: read-out: EC50 (required to reduce virus-induced cytopathogenicity by 50%) Vaccinia virus. (In general: Cytopathic effects are the visible damage that an infection or toxin causes in cultured cells.)
In series [5] the test system is Vesicular stomatitis virus. Description: microbe, parasite or virus in culture. Type of series: cell-based. The conditions noted are these: read-out: EC50 (required to reduce virus-induced cytopathogenicity by 50%) Vesicular stomatitis virus.
The subject of series [6] is Herpes simplex virus-1 TK^− KOS ACV^r. The experiment in a line: microbe, parasite or virus in culture. Type of series: cell-based. The conditions noted are these: read-out: EC50 (required to reduce virus-induced cytopathogenicity by 50%) Herpes simplex virus-1 TK^− KOS ACV^r.
The test system of series [7] is Herpes simplex virus-1 (KOS). Description: microbe, parasite or virus in culture. The conditions noted are these: Human alphaherpesvirus 1, HeLa, read-out: EC50 (required to reduce virus-induced cytopathogenicity by 50%) Herpes simplex virus-1 (KOS).
For series [8], the system named is Herpes simplex virus-2 (G). Description: microbe, parasite or virus in culture. The conditions noted are these: Human alphaherpesvirus 2, HeLa, read-out: EC50 (required to reduce virus-induced cytopathogenicity by 50%) Herpes simplex virus-2 (G).
A further series relates to Hela cells. The experiment in a line: minimum cytotoxic concentration in antiviral assay host cells (Table 2).
Series [9] deals with Herpes simplex virus-1 (KOS). The conditions noted are these: read-out: EC50 (required to reduce virus-induced cytopathogenicity by 50%) Herpes simplex virus-1 (KOS); Hela cells.
Series [10] has as its system Herpes simplex virus-2 (G). The conditions noted are these: read-out: EC50 (required to reduce virus-induced cytopathogenicity by 50%) Herpes simplex virus-2 (G); Hela cells.
In series [11] the test system is cells lacking (TK negative) or possessing (TK positive) the phosphorylation enzyme. Conditions: cell death curves, FIG. 3.
Setting [12] is: even at higher concentrations of 25 μM.
Setting [13] is: Vesicular stomatitis virus, HeLa.

Read-outs that look alike come from different tables or passages of the source.

“1-(Thyminyl-)ethyl-ferrocene [Compound 4]”: the IC50 in series [1] was 417 µM; in series [2] it was 592 µM; in [3], 509 µM. For the same compound, the “inhibition of cell growth” value in series [4] (setting [12]) is given as “ineffective at inhibiting cell growth”.

As for “1-[2-(Adenin-9-yl)ethyl]-ferrocene [Compound 5]”, the “inhibition of cell growth” value in series [4] (setting [12]) is given as “ineffective at inhibiting cell growth”.

With “1-[α-Methyl-(3-(hydroxy)propyl)]ferrocene [Compound 3]”, the IC50 was found to be 12.3 µM in series [1], 38.7 µM in series [2] and 45.2 µM in [3]. Besides, in series [4] (setting [12]), the “inhibition of cell growth” value was “ineffective at inhibiting cell growth”.

As to `Nc1nc2c(ncn2COCCO)c(=O)[nH]1` [Acyclovir], the EC50 (commonly the concentration that produces a half-maximal response) in the series on Vaccinia virus (Orthopoxvirus vaccinia, HeLa) is greater than 250 µM; in series [5] (setting [13]), greater than 250 µM; in [6] (Human alphaherpesvirus 1, HeLa) it was 50 µM.

Turning to `O=c1[nH]c(=O)n([C@H]2C[C@H](O)[C@@H](CO)O2)cc1/C=C/Br` [Brivudin], the EC50 in the series on Vaccinia virus (Orthopoxvirus vaccinia, HeLa) was 10 µM; in series [5] (setting [13]), greater than 250 µM; in series [6] (Human alphaherpesvirus 1, HeLa), 50 µM; in series [7], 0.02 µM; in series [8], 183 µM. Also, the “Minimum cytotoxic concentration (required to cause a microscopically detectable alteration of normal cell morphology)” value with Hela cells is greater than 250 μM.

As to `Nc1ccn(C[C@@H](CO)OCP(=O)(O)O)c(=O)n1` [Cidofovir], the EC50 is 17 µM with Vaccinia virus (Orthopoxvirus vaccinia, HeLa); greater than 250 µM in [5] (setting [13]); 0.9 µM in series [6] (Human alphaherpesvirus 1, HeLa); 2 µM in [7]; 2 µM in [8]. Also, in the series on Hela cells, the “Minimum cytotoxic concentration (required to cause a microscopically detectable alteration of normal cell morphology)” value was greater than 250 μM.

Turning to `N.N.[Cl][Pt][Cl]` [Cisplatin], the IC50 in [1] was 1 µM; in [2], 0.9 µM; in series [3], 1.2 µM.

Turning to `Nc1nc(O)c2ncn(COC(CO)CO)c2n1` [Ganciclovir], the EC50 in the series on Vaccinia virus (Orthopoxvirus vaccinia, HeLa) is greater than 100 µM; in series [5] (setting [13]), greater than 100 µM; in series [6] (Human alphaherpesvirus 1, HeLa), 10 µM.

Regarding “(S,Rp)-1-[α-Methyl-(3-(hydroxy)propyl)]-2-[2-(-adenin-9-yl)ethyl]-ferrocene [Compound 2]”, the “inhibition of cell growth” value in series [4] (6.25 μM, 4-day experiment) is recorded as “inhibited cell growth”.

For “(S,Rp)-1-[α-Methyl-(3-(hydroxy)propyl)]-2-[(thyminyl)ethyl]-ferrocene [Compound 1]”, the IC50 in [1] was determined as 0.78 µM; in [2], 0.9 µM; in series [3], 2.68 µM. Besides, the EC50 was 21.6 µM in the series on Vaccinia virus; 48 µM in series [5]; 9.6 µM in [6] (Hela cells); 2.4 µM in [9]; 2.4 µM in series [10]. Also, the “inhibition of cell growth” value in [4] (6.25 μM, 4-day experiment) is reported as “inhibited cell growth”. Moreover, the “cell survival, TK negative versus TK positive cells” value in series [11] is given as “the cells lacking the phosphorylation enzyme (TK negative) survive more than the cells that possess the phosphorylation enzyme (TK positive)”.
